According to article PMC9965906, “Discovery and Development Strategies for SARS-CoV-2 NSP3 Macrodomain Inhibitors” (Pathogens, 2023):
pIC50: −log10 of the molar value. Where “and” joins values, the source holds several entries; their conditions need not be identical. Equal values may be shown once. Where a name gives a salt, the structure may show the parent alone. Read-outs that look alike come from different tables or passages of the source.

Target: SARS-CoV-2 NSP3 Mac1 (Severe acute respiratory syndrome coronavirus 2, UniProt P0DTD1)
Test: biochemical
Format: binding
Conditions: for inhibition at 125 µM: read-out: Inhibition at top concentration of 125 µM (%); for NSP3 Mac1 inhibition at 50 µM (%) / inhibition at 50 µM: FDA-approved compound library primary screen, single shot; for Hill slope: confirmatory HTRF assays
[1] = MIDAS hit compounds and analogues
[2] = MIDAS hit compounds and analogues, top concentration 125 µM, 8-point 1:1 dilution, duplicate
[3] = BioAscent virtual screening hit compounds, duplicate
[4] = MIDAS hit compounds and analogues, top concentration 125 µM, 8-point 1:1 dilution, duplicate, read-out: IC50

Row | Compound | IC50 in µM [2] | inhibition at 125 µM [1] [%] | further results
1 | CC(=O)N1CCN(C(=O)c2cc(-c3ccccc3)nc3c2cnn3C(C)C)CC1 [IAL-MD0082, CC(C)N1N=CC=2C(=CC(=NC12)C=3C=CC=CC3)C(=O)N4CCN(CC4)C(=O)C] | Not measurable | – | Inhibition at top concentration of 125 µM (%) [1]: Not measurable
2 | CCn1ncc2c(C(=O)N(Cc3ccccn3)C(C)C)cc(-c3cccs3)nc21 [IAL-MD0071, CCN1N=CC=2C(=CC(=NC12)C3=CC=CS3)C(=O)N(CC=4C=CC=CN4)C(C)C] | Not measurable | 36.8 | –
3 | Oc1cc2ccccc2nc1-c1ccccc1 [BCC0093974, Oc1cc2ccccc2nc1-c1ccccc1] | – | – | inhibition at 25 µM [3]: 38.6%
4 | CC(=O)c1ccc(-c2ccc(N)cc2)o1 [BCC0119417, CC(=O)c1ccc(-c2ccc(N)cc2)o1] | – | – | inhibition at 25 µM [3]: 59.3%
5 | COc1ccc(C(=O)CC(=O)c2ccc(C(C)(C)C)cc2)cc1 [Avobenzone, reference compound] | – | – | NSP3 Mac1 inhibition at 50 µM (%): 62%; inhibition at 50 µM: 61.8%
6 | COc1ccc(-c2cc(C(=O)NC3CC3)c3ccccc3n2)cc1 [IAL-MD0103, COC=1C=CC(=CC1)C=2C=C(C(=O)NC3CC3)C=4C=CC=CC4N2] | Not measurable | 38.4 | –
7 | COc1ccc(-c2cc(C(=O)O)c3ccc(OC)cc3n2)cc1 [IAL-MD0030, COC=1C=CC(=CC1)C=2C=C(C(=O)O)C=3C=CC(OC)=CC3N2] | Not measurable | 44.7 | –
8 | CC(C)NC(=O)c1ccc(-c2ccnc3c2ccn3C)o1 [IAL-MD0130, O=C(NC(C)C)C1=CC=C(C2=C3C(N(C)C=C3)=NC=C2)O1] | – | – | Inhibition at top concentration of 125 µM (%) [1]: Not measurable due to compound precipitation; pIC50 [4]: 5.12
9 | CC(C)n1ncc2c(C(=O)N3CCCC(C)(O)C3)cc(-c3cccs3)nc21 (stereo not shown) [IAL-MD0086, CC(C)N1N=CC=2C(=CC(=NC12)C3=CC=CS3)C(=O)N4CCCC(C)(O)C4] | Not measurable | 47.7 | –
10 | Cc1nn(C)c2nc(-c3cccs3)cc(C(=O)NC3CCOCC3)c12 [IAL-MD0121, CC1=NN(C)C=2N=C(C=C(C(=O)NC3CCOCC3)C12)C4=CC=CS4] | Not measurable | 17.8 | –
11 | O=C(O)c1cc(O)c2c(c1)[C@H]([C@H]1c3cc(C(=O)O)cc(O)c3C(=O)c3c(O[C@@H]4O[C@H](CO)[C@@H](O)[C@H](O)[C@H]4O)cccc31)c1cccc(O[C@@H]3O[C@H](CO)[C@@H](O)[C@H](O)[C@H]3O)c1C2=O [Sennoside A, reference compound] | – | – | NSP3 Mac1 inhibition at 50 µM (%): 112%; inhibition at 50 µM: 112%
12 | COc1cc(/C=C2\Oc3cc(O)ccc3C2=O)ccc1O [BCC0002149, COc1cc(/C=C2\Oc3cc(O)ccc3C2=O)ccc1O] | – | – | inhibition at 25 µM [3]: 47.2%
13 | CCn1ncc2c(C(=O)N3CCOCC3)cc(-c3ccccc3)nc21 [IAL-MD0050, CCN1N=CC=2C(=CC(=NC12)C=3C=CC=CC3)C(=O)N4CCOCC4] | Not measurable | – | Inhibition at top concentration of 125 µM (%) [1]: Not measurable
14 | CC(C)n1ncc2c(C(=O)N3CCNC(=O)C3)cc(-c3ccco3)nc21 [IAL-MD0070, CC(C)N1N=CC=2C(=CC(=NC12)C3=CC=CO3)C(=O)N4CCNC(=O)C4] | – | 83.2 | pIC50 [4]: 4.79
15 | CC(C)(O/N=C(\C(=O)N[C@@H]1C(=O)N2C(C(=O)[O-])=C(C[n+]3ccccc3)CS[C@H]12)c1csc(N)n1)C(=O)O [Ceftazidime, reference compound] | – | – | NSP3 Mac1 inhibition at 50 µM (%): 108%; inhibition at 50 µM: 108%; Hill slope (FDA-approved hit compounds): 1.38; pIC50 (IC50): 4.43
16 | CCn1ncc2c(C(=O)NCc3ccc(OC)nc3)cc(-c3cccs3)nc21 [IAL-MD0117, CCN1N=CC=2C(=CC(=NC12)C3=CC=CS3)C(=O)NCC=4C=CC(OC)=NC4] | Not measurable | 9.7 | –

Row | Compound | IC50 in µM [2] | inhibition at 125 µM [1] [%] | further results
17 | CC(C)n1ncc2c(C(=O)N3CCC(C)(CO)CC3)cc(-c3cccs3)nc21 [IAL-MD0106, CC(C)N1N=CC=2C(=CC(=NC12)C3=CC=CS3)C(=O)N4CCC(C)(CO)CC4] | Not measurable | 32.1 | –
18 | CNC(=O)CN(C)C(=O)c1cc(-c2cccs2)nc2c1c(C)nn2C [IAL-MD0081, CNC(=O)CN(C)C(=O)C=1C=C(N=C2N(C)N=C(C)C12)C3=CC=CS3] | Not measurable | 53 | –
19 | C=C1c2cccc(O)c2C(=O)C2=C(O)[C@]3(O)C(=O)C(C(N)=O)=C(O)[C@@H](N(C)C)[C@@H]3[C@@H](O)[C@H]12 [Methacycline hydrochloride, reference compound] | – | – | NSP3 Mac1 inhibition at 50 µM (%): 87%; inhibition at 50 µM: 86.8%; outcome of dose-response titration (FDA-approved hit compounds, top concentration 125 µM): strong assay interference
20 | CC(C)n1ncc2c(C(=O)N3CCNC(=O)C3)cc(-c3cccs3)nc21 [IAL-MD0064, CC(C)N1N=CC=2C(=CC(=NC12)C3=CC=CS3)C(=O)N4CCNC(=O)C4] | – | 78.7 | pIC50 [4]: 4.60
21 | CCn1ncc2c(C(=O)NCCNC(C)=O)cc(-c3cccs3)nc21 [IAL-MD0092, CCN1N=CC=2C(=CC(=NC12)C3=CC=CS3)C(=O)NCCNC(=O)C] | Not measurable | 17.1 | –
22 | COCCN(CC(N)=O)C(=O)c1cc(-c2cccs2)nc2c1c(C)nn2C [IAL-MD0116, COCCN(CC(=O)N)C(=O)C=1C=C(N=C2N(C)N=C(C)C12)C3=CC=CS3] | Not measurable | 55.8 | –
23 | CCn1ncc2c(C(=O)Nc3cccc(-c4nnco4)c3)cc(-c3cccs3)nc21 [IAL-MD0061, CCN1N=CC=2C(=CC(=NC12)C3=CC=CS3)C(=O)NC=4C=CC=C(C4)C5=NN=CO5] | Not measurable | 7 | –
24 | CC(C)n1ncc2c(C(=O)Nc3ccn(C)n3)cc(-c3cccs3)nc21 [IAL-MD0090, CC(C)N1N=CC=2C(=CC(=NC12)C3=CC=CS3)C(=O)NC=4C=CN(C)N4] | Not measurable | 11 | –
25 | NC(=O)[C@@H]1CCCN1C(=O)c1cc(-n2cccc2)ccc1Cl [ARUK4000702-001-001, NC(=O)[C@@H]1CCCN1C(=O)c1cc(ccc1Cl)-n1cccc1] | – | – | inhibition at 25 µM (MIDAS compound library primary screen): 45.8%
26 | C[C@H]1[C@H](NC(=O)/C(=N\OC(C)(C)C(=O)O)c2csc(N)n2)C(=O)N1S(=O)(=O)O [Aztreonam, reference compound] | – | – | NSP3 Mac1 inhibition at 50 µM (%): 43%; inhibition at 50 µM: 42.8%; Hill slope (FDA-approved hit compounds): 1.05; pIC50 (IC50): 4.53 and 4.54
27 | CCn1ncc2c(C(=O)N3CCCC(C)C3)cc(-c3ccccc3)nc21 (stereo not shown) [IAL-MD0096, CCN1N=CC=2C(=CC(=NC12)C=3C=CC=CC3)C(=O)N4CCCC(C)C4] | Not measurable | 3.9 | –
28 | CN1CCN(C(=O)c2cncc(-c3ccnc4c3ccn4C)n2)CC1 [IAL-MD0146, O=C(C1=CN=CC(C2=C3C(N(C)C=C3)=NC=C2)=N1)N4CCN(C)CC4] | Not measurable | 3.7 | –
29 | COc1cc(/C=C/C(=O)c2cc3ccccc3o2)cc(Br)c1O [BCC0117785, COc1cc(/C=C/C(=O)c2cc3ccccc3o2)cc(Br)c1O] | – | – | inhibition at 25 µM [3]: 39.3%
30 | CCCc1nc2c(C)cc(-c3nc4ccccc4n3C)cc2n1Cc1ccc(-c2ccccc2C(=O)O)cc1 [telmisartan, reference compound] | – | – | inhibitory activity in FDA-approved library screen (primary screen at the set screening concentration): could yet not measure any inhibitory activity
31 | CCCCNC(=O)c1ccc(-c2cc(N)nc3[nH]ccc23)o1 [IAL-MD0134, O=C(NCCCC)C1=CC=C(C2=C3C(NC=C3)=NC(N)=C2)O1] | – | 77.8 | pIC50 [4]: 4.60
